Key:
[1] = Radioactive metabolites in urine and bile after IV administration of [14C] compound (I) to bile-duct cannulated monkeys; type: in vivo, monkey; details: IV infusion 2 mg/kg; for Metabolites in BDC-Monkeys (0-72 hr), Bile, % Dose / Metabolites in BDC-Monkeys (0-72 hr), Bile, % Rad: bile 0-72 hr; for Metabolites in BDC-Monkeys (0-72 hr), Urine, % Dose / Metabolites in BDC-Monkeys (0-72 hr), Urine, % Rad (% of total radioactivity in sample): urine 0-72 hr
Procedure: A separate bile-duct cannulated (BDC) monkey study was also conducted. […]
The C-14 label was on the carbon-2 of the thiazole ring.
HPLC was performed on an Agilent 1100™ system equipped with binary pumps, autoinjector, and a column heater. A Phenomenex Synergy Polar-RP® column (4.6×250 mm, 5 micron) was used for metabolite separation. All HPLC analyses were performed at 1 mL/min flow rate at 35° C. The HPLC mobile phase consisted of (A) water with 0.1% formic acid and (B) acetonitrile with 0.1% formic acid.
Each fraction of column eluent was evaporated to dryness on a Savant Speed-Vac (Savant Instruments Inc., Holbrook, N.Y.) and counted for radioactivity with a Packard Top Count® microplate scintillation analyzer (Packard Biosciences, Downers Grove, Ill.).
The pooled monkey and human urine samples (3-5 mL) were extracted with 2 volumes of acetonitrile/acetone (1:1). The mixtures were vortex mixed, sonicated and centrifuged at 3500 rpm for 10 min. The supernatants were evaporated to dryness. The residue was suspended in 0.3-0.5 mL of 30% acetonitrile in water and centrifuged at 13000 rpm for 5 min. Aliquots of the supernatants were injected onto the HPLC or analyzed by LSC for radioactivity recovery. Pooled urine samples from BDC monkeys and rats were centrifuged at 13000 rpm for 10 min and injected onto the HPLC for profiling without further treatment.
A pooled bile sample (0-72 h) from BDC monkeys was diluted fifteen-fold with 20% acetonitrile in water with 0.1% formic acid. The diluted sample was centrifuged at 13000 rpm for 5 min. Aliquots of the supernatant was injected onto HPLC or analyzed by LSC for radioactivity recovery.
The LC/MS system used for analysis of plasma, urine, bile, and fecal samples consisted of an Agilent 1100™ HPLC system connected to a Finnigan LCQ-DecaXP mass spectrometer. Samples were analyzed using positive electrospray ionization. The capillary temperature used for analysis was 320° C., and the nitrogen gas flow rate, spray current, and voltages were adjusted to give maximum sensitivity. The HPLC conditions were described in section 3.3.1.
Counts per min (CPM) were determined on a Packard TopCount NXT microplate scintillation and luminescence counter. For each injection, the average CPM value (2-4 CPM) obtained from fractions between 2-3 min (column void) in the chromatogram was subtracted from the CPM value of each fraction. Biotransformation profiles were prepared by plotting the background subtracted CPM values against time-after-injection. Radioactivity peaks in the biotransformation profiles were reported as a percentage of the total radioactivity (after background subtraction) collected during the entire HPLC run.

[2] = Metabolite profile of [14C] compound (I) in rat liver microsome incubations; type: in vitro ADME, SD rat; details: (Ia) 20 μM, 15 min, 37° C., 2 mg/mL microsomal protein, 2.0 mM NADPH
Procedure: The compound of formula (I) was used as the [^14C] compound (Ia) (30.4 μCi/mg, radiochemical purity 99.2%), as the monohydrate of the free base. The C-14 label was on the carbon in the 2-position of the thiazole ring.
Freshly isolated rat hepatocyte preparations were prepared from one male Sprague-Dawley rat. Rat Hepatocytes were prepared according to a standard procedure (Seglen, PO. Preparation of isolated rat liver cells. Methods Cell Biol., 1976, 13: 29-83). Cryopreserved cynomolgus monkey hepatocytes (male, pooled, n=6) and human hepatocytes (3 individual preparation) were purchased from In Vitro Technologies (Baltimore, Md.). Microsomes from male SD Rats (pooled, n=200, 20 mg/mL) and male cynomolgus monkeys (pooled, n=8, 20 mg/mL) were obtained from Xenotech LLC, Kansas City, Kans. Human liver microsomes (male, pooled, n=38) were from BD-Gentest, Woburn, Mass.
A 6 mM stock solution of the compound of formula (Ia) (the [^14C] of the compound of formula (I) was prepared at by dissolving 3.7 mg of the compound of formula (Ia) into 1:1 acetonitrile/DMSO. The 2 mM stock solution of the compound of formula (Ia) was obtained by diluting an aliquot of the 6 mM stock solution 3-fold with acetonitrile.
Hepatocyte incubations were conducted at 37° C. for 3 h in a NAPCO CO2 6000 incubator (VWR Scientific Products) under a 5% CO2 atmosphere using an orbital shaker at 90 rpm. For each incubation, the final concentration of compound (Ia) was 20 μM and the hepatocyte concentrations were ˜2 million cells/mL. A control incubation, in the absence of hepatocytes, was also performed for 3 h. The incubations were stopped by adding one volume of ice-cold acetonitrile. Each 0.5 mL incubation contained 0.1 M potassium phosphate buffer (pH 7.4), 2.5 mM MgCl2, 2 mg/mL microsomal protein, and 2.0 mM NADPH. The final substrate concentration was 20 μM. The mixtures were incubated in a shaking water bath at 37° C. for 15 min. Control incubations in the absence of microsomes or NADPH were performed for each species. The reactions were stopped with the addition of 1 mL of ice-cold acetonitrile.
HPLC was performed on a Waters Alliance™ system equipped with Waters 2695 pumps and a photodiode array detector (Waters 2996). A Phenomenex Synergy Polar-RP® column (4.6×250 mm, 5 micron) was used for metabolite separation. All HPLC analyses were performed at 1 mL/min flow rate at room temperature. Two HPLC mobile phase and gradient systems were used because all metabolites could not be completely separated on either of the individual HPLC systems. The first system consisted of (A) water with 0.1% formic acid and (B) acetonitrile with 0.1% formic acid as mobile phase. The linear gradient was as follows: 0 min, 20% B; 1 min, 20% B; 41 min, 35% B; 42 min, 90% B; 44 min, 90% B. The column was re-equilibrated at 20% B for 6 min before the next injection. The second HPLC system was used to separate certain co-eluting metabolites that could not be separated by the first system. The mobile phase consisted of (A) water with 0.1% triflouroacetic acid (TFA) and (B) acetonitrile with 0.1% TFA. The gradient was as follows: 0 min, 20% B; 1 min, 20% B; 51 min, 35% B; 52 min, 90% B; 54 min 90% B. The column was equilibrated at 20% B for 6 min prior to the next injection.
On-line radioactivity detection (RAD) was conducted using an INUS β-RAM detector (Model 3, INUS, Tampa, Fla.). The β-RAM was operated with a 500 μL liquid flow cell in the homogeneous liquid scintillation counting mode. A flow rate of 2 mL/min of scintillation cocktail was mixed with the HPLC effluent. The effluent from HPLC was split to the β-RAM detector (90%) and the mass spectrometer (10%) by adjusting the length and diameter of post column tubings. The β-RAM detector provided integrated output detailing the percentage and amount of radioactivity under each radioactive peak.
Hepatocyte and liver microsomal incubations were quenched with acetonitrile and were vortex-mixed for 3 min. […]

SMILES	Metabolites in BDC-Monkeys (0-72 hr), Bile, % Dose [1]	Metabolites in BDC-Monkeys (0-72 hr), Bile, % Rad [1]	Metabolites in BDC-Monkeys (0-72 hr), Urine, % Dose [1]	Metabolites in BDC-Monkeys (0-72 hr), Urine, % Rad (% of total radioactivity in sample) [1]	% of Radioactivity in Microsomes, Rat [2]
Cc1nc(Nc2ncc(C(=O)Nc3c(C)cccc3Cl)s2)cc(N2CCNCC2)n1 [M4 (II)]	0.5%	0.7%			1.8%
Cc1nc(Nc2ncc(C(=O)Nc3c(C)cccc3Cl)s2)cc(N2CC[N+]([O-])(CCO)CC2)n1 [M5 (III)]	5.0%	7.4%	7.0%	70.7%	37.3%
Cc1nc(Nc2ncc(C(=O)Nc3c(C)cccc3Cl)s2)cc(N2CCN(CC(=O)O)CC2)n1 [M6 (IV), 2-(4-(6-(5-((2-Chloro-6-methylphenyl)carbamoyl)thiazol-2-ylamino)-2-methylpyrimidin-4-yl)piperazin-1-yl)acetic acid]	6.3%	9.4%	0.3%	2.8%	0.7%

The remaining lines, values ahead:

Metabolites in BDC-Monkeys (0-72 hr), Bile, % Dose [1]	Metabolites in BDC-Monkeys (0-72 hr), Bile, % Rad [1]	Metabolites in BDC-Monkeys (0-72 hr), Urine, % Dose [1]	Metabolites in BDC-Monkeys (0-72 hr), Urine, % Rad (% of total radioactivity in sample) [1]	% of Radioactivity in Microsomes, Rat [2]	SMILES
2.4%	3.5%	0.3%	2.7%	4.5%	Cc1nc(Nc2ncc(C(=O)Nc3c(C)cc(O)cc3Cl)s2)cc(N2CCN(CCO)CC2)n1 [M20 (V)]
3.2%	4.7%	0.1%	1.4%	54.2%	Cc1nc(Nc2ncc(C(=O)Nc3c(C)cccc3Cl)s2)cc(N2CCN(CCO)CC2)n1 [Parent (I), N-(2-Chloro-6-methylphenyl)-2-[[6-[4-(2-hydroxyethyl)-1-piperazinyl]-2-methyl-4-pyrimidinyl]amino]-5-thiazolecarboxamide]
3.0%	4.4%	0.1%	1.4%	4.5%	Cc1nc(Nc2ncc(C(=O)Nc3c(Cl)cccc3CO)s2)cc(N2CCN(CCO)CC2)n1 [M24 (VI), N-(2-chloro-6-(hydroxymethyl)phenyl)-2-(6-(4-(2-hydroxyethyl)piperazin-1-yl)-2-methylpyrimidin-4-ylamino)thiazole-5-carboxamide]

— patent publication US20060211705A1, “'N-(2-chloro-6-methylphenyl)-2-[[6-[4-(2-hydroxyethyl)-1-piperazinyl]-2-methyl-4-pyrimidinyl]amino]-5-thiazolecarboxamides metabolites” (priority 2005, published 2006)
